What was measured:
GBM0308 neurospheres [1] = assay: Neurosphere formation assay (single neurosphere, PI/Hoechst); format: cell-based; details: three days treatment
Method: (§1) To gain additional mechanistic insights into GBM cell death induced by (−)-20, the inventors conducted several functional assays. The inventors first derived a single neurosphere from GBM0308 cells cultured in stem cell conditions, which was treated with either DMSO or (−)-20 at varying doses for three days followed by staining with PI and Hoechst dyes and subsequent imaging. […] To capture the kinetics of apoptotic events, the inventors employed caspase 3/7 staining of GBM0308 neurospheres treated with either DMSO or (−)-20 and subsequently evaluated at three timepoints over a 48-hour period. […] (FIG. 5B).
Neurosphere Formation Assays: Single neurospheres were generated by seeding GBM0308 cells (400 cells per well) in a 384-well ultra-low attachment round bottom microplate (Nexcelom Bioscience, ULA-384 U). The plates were then centrifuged at 300×g for 10 minutes to cluster cells at the bottom of the wells, followed by incubation at 37° C. and 5% CO2 for 4 days to allow the formation of single neurospheres and treated with either DMSO or drugs at concentrations of 3.3, 1.11, 0.37, 0.12, 0.041, 0.013, 0.004 μM. On Day 7, neurospheres were stained with propidium iodide and Hoechst, as described above. The “neurosphere 1+Mask” application was used to measure the fluorescent intensities of PI, using Celigo cytometer as described previously.^70

GBM0308 neurospheres [2] = assay: Caspase 3/7 staining of neurospheres; format: cell-based, human; details: 1 μM, 24- and 48-hour timepoints
Method: as §1
(§2) Apoptosis Assays: For the Caspase 3/7 assay single neurospheres were generated as described above. On day four, neurospheres were treated with compound (−)-20. Apoptosis in treated tumorspheres was assessed using Nexcelom's ViaStain™ Live Caspase 3/7 Detection kit (Nexcelcom, CS1-V0002-1). […] Plates were imaged using the “neurosphere 1+Mask” application to measure fluorescent intensities of the caspase dye, as described previously.^70 Apoptosis was quantified using the FITC Annexin V apoptosis detection kit II (Invitrogen). […] At 12 h and 24 h after treatment, neurospheres were gently dissociated by using trypsin 0.025%, stained with PI and FITC and analyzed by flow cytometery using a Bio-Rad ZE5 Cell Analyzer.

BT112 CSCs = assay: Dose-response killing of CSCs in BT112 glioblastoma cell line; format: cell-based; details: Homo sapiens, read-out: CSC EC50
Method: (§3) Cell Culture: Glioblastoma stem cell lines GBM0308, BT145, and BT112 were cultured in neurobasal (NBE medium) containing N-2 and B-27 supplements, EGF, bFGF, L-glutamine, and Penicillin-Streptomycin), as described previously.^19 Adherent GBM cells were cultured in serum-containing DMEM media (Invitrogen) supplemented with 10% fetal bovine serum (Corning Cellgro™). Cells were incubated at 37° C. and 5% CO2 to allow neurosphere formation. For seeding and subculturing, the neurospheres were gently trypsinized with 0.025% trypsin to form a single-cell suspension.
(§4) Dose-Response Testing in GBM Cells: Briefly, on day 1, cells were seeded in triplicate. For CSCs, 1500 cells/well were plated in a low attachment 96-well plate with NBE media and incubated for 3 days at 37° C. and 5% CO2 to allow the formation of neurospheres. For non-CSCs, 3000 cells/well were plated in a 96-well plate with DMEM media supplemented with 10% FBS. Similarly, the assay plates were also incubated for the same duration. Compound treatments started on day 4. […] After incubation, plates were read by Celigo imaging cytometer using an inbuilt Celigo application; Cell Viability (Dead+Total). For the viability measurement, the total number of neurospheres/cells and dead neurospheres/cells in each well were counted by the cytometer. […]

BT145 CSCs = assay: Dose-response killing of CSCs in BT145 glioblastoma cell line; format: cell-based; details: Homo sapiens, read-out: CSC EC50
Method: as §3, §4

GBM0308 cells (CSCs) = assay: Annexin V/PI flow cytometry apoptosis assay; format: cell-based, human; details: 1 μM, 12 h and 24 h
Method: as §1, §2

Compound: COc1cc(OC)c2c(c1)O[C@@]1(c3ccc(Br)cc3)[C@H](c3ccccc3)[C@@H](C(=O)NS(=O)(=O)N(C)C)[C@@H](O)[C@@]21O [(−)-20, (1R,2R,3S,3aR,8bS)-3a-(4-bromophenyl)-N—(N,N-dimethylsulfamoyl)-1,8b-dihydroxy-6,8-dimethoxy-3-phenyl-2,3,3a,8b-tetrahydro-1H-cyclopenta[b]benzofuran-2-carboxamide]
- concentration from which cytotoxic effects on CSC neurospheres are seen (PI staining) (GBM0308 neurospheres [1]): ≥ 120 nM
- effect on neurosphere size, in words (GBM0308 neurospheres [1]; varying doses): dose-dependent reduction in neurosphere size
- caspase 3/7 staining (GBM0308 neurospheres [2]): positive staining
- EC50 (BT112 CSCs): 0.034 µM
- EC50 (BT145 CSCs): 0.093 µM
- Annexin V/PI staining (apoptosis) (GBM0308 cells (CSCs)): induced apoptosis
